Source: patent US20060079453A1, “Hla binding peptides and their uses” (priority 2002, published 2006)
Read-outs that look alike come from different tables or passages of the source. No end group written: not given here.

What was measured:
Assay in all cases: biochemical
Type in all cases: binding
[1] = biological target: HLA-DR DRB1*0701 (DR7) (Homo sapiens, UniProt P01903+P01911, A100R/A102G/A103Q/D57E/D86V/E43K/F76Y/K127E/L162R/M171V/P40G/Q125H/Q99D/R33Q/R42Y/R54Q/S133A/S66F/T210M/V115G/Y107V/Y59L/Y89S)
[2] = biological target: HLA-DR DRB1*0301 (DR3) (Homo sapiens, UniProt P01903+P01911, A100K/A102G/A103R/A169T/F55Y/I96L/K41T/L162R/M171V/P40S/Q125H/Q178H/Q39Y/R42S/S66N/T106N/T262R/W38E/Y61H)
HLA-DR DRB1*0301 (DR3), sequence (P01903 26-254 limits assumed, other chains not shown): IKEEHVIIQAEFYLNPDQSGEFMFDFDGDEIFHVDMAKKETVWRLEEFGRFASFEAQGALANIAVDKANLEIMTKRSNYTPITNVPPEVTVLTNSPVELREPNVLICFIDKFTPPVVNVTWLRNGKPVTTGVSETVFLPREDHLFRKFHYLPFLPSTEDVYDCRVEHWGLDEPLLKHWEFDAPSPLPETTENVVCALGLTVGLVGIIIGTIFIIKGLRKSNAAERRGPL

[3] = biological target: HLA-DR DRB1*0901 (DR9) (Homo sapiens, UniProt P01903+P01911, A100R/A103E/D57H/D86V/F55Y/F60I/F76Y/I96F/K127E/L162R/M171V/P40D/Q125H/Q99R/R33Q/R42F/S133A/S66N/T210M/V115G/W38K/Y107V/Y59G/Y89S)
[4] = biological target: HLA-DR DRB1*0405 (DR4) (Homo sapiens, UniProt P01903+P01911, A100R/A169T/D86S/F76Y/I96L/K127E/L162R/M171V/N62H/P40V/Q125Y/R42H/S133A/S149N/S66Y/V115G/V209L/W38E)
[5] = biological target: HLA-DR DRB1*0401 (DR4) (Homo sapiens, UniProt P01903+P01911, A100K/A169T/F76Y/I96L/K127E/L162R/M171V/N62H/P40V/Q125Y/R42H/S133A/S149N/S66Y/V115G/V209L/W38E)
[6] = biological target: HLA-DR DRB1*0802 (DR8) (Homo sapiens, UniProt P01903+P01911, A100R/A103L/A169T/F76Y/H45Y/I96F/K41T/L162R/M171V/P40S/Q125H/Q178H/Q39Y/Q99D/R218S/R42G/S66Y/V115G/W38E)
[7] = biological target: HLA-DR DRB5*0101 (DR51) (Homo sapiens, UniProt P01903+Q30154); conditions: DRB5 *0101
[8] = biological target: HLA-DR DRB1*1302 (DR13) (Homo sapiens, UniProt P01903+P01911, A100E/A169T/K41T/L162R/M171V/P40S/Q125H/Q178H/Q39Y/Q99D/R42S/S66N/T262R/V115G/W38E/Y61H)
HLA-DR DRB1*1302 (DR13), sequence (P01903 26-254 limits assumed, other chains not shown): as above

[9] = biological target: HLA-DR DRB1*1501 (DR15) (Homo sapiens, UniProt P01903+P01911); conditions: DRBI *1501
[10] = biological target: HLA-DR DRB1*0101 (DR1) (Homo sapiens, UniProt P01903+P01911, A100R/D57E/F55L/F60I/F76Y/I96L/L162R/M171V/P40L/Q125E/R42F/V115G/Y59C)
[11] = biological target: HLA-DR DRB1*1101 (DR11) (Homo sapiens, UniProt P01903+P01911, A100R/A169T/A87E/I96F/K41T/L162R/M171V/P40S/Q125H/Q178H/Q39Y/Q99D/R42S/S66Y/T262R/V115G/W38E)
HLA-DR DRB1*1101 (DR11), sequence (P01903 26-254 limits assumed, other chains not shown): as above

[12] = biological target: HLA-DR DRB4*0101 (DR53) (Homo sapiens, UniProt P01903+P13762, G164S); conditions: DRB4 *0101

CCTSICSLYQLENY
IC50 ([1]; read-out: DRB1 *0701): 35.6 µM
IC50 ([2]; read-out: DRB1 *0301): 71.2 µM
IC50 ([3]; read-out: DRB1 *0901): 29.8 µM
IC50 ([4]; read-out: DRB1 *0405): 0.629 µM
IC50 ([5]; read-out: DRB1 *0401): 8.38 µM
IC50 ([6]; read-out: DRB1 *0802): > 54.4 µM

DFSYLQDSDPDSFQD
IC50 ([1]; DRB1 *0701): > 250 µM
IC50 [7]: > 40 µM
IC50 ([3]; DRB1 *0901): > 107 µM
IC50 ([4]; DRB1 *0405): > 127 µM
IC50 ([8]; DRBI *1302): > 35 µM
IC50 [9]: > 91 µM
IC50 ([5]; DRB1 *0401): 0.264 µM
IC50 [6]: > 61.2 µM

FLRIVQTRSVEGSTGF
IC50 ([1]; DRB1 *0701): 0.0098 µM
IC50 ([10]; DRB1 *0101): 0.0064 µM
IC50 [2]: 3.94 µM
IC50 ([3]; DRB1 *0901): 0.778 µM
IC50 ([4]; DRB1 *0405): 0.099 µM
IC50 ([8]; DRBI *1302): 0.0015 µM
IC50 [9]: 0.0098 µM
IC50 ([5]; DRB1 *0401): 0.011 µM
IC50 [6]: 0.445 µM

FPDWQNYTPGPGTRF
IC50 ([1]; DRB1 *0701): 59.6 µM
IC50 [7]: > 20.5 µM
IC50 [2]: > 224 µM
IC50 ([3]; DRB1 *0901): 3.01 µM
IC50 ([11]; DRB1 *1101): > 51.3 µM
IC50 ([4]; DRB1 *0405): > 10.1 µM
IC50 ([8]; DRBI *1302): > 12 µM
IC50 [9]: 35.1 µM
IC50 ([5]; DRB1 *0401): 23.4 µM
IC50 [12]: 33.9 µM
IC50 [6]: 0.592 µM

QLCFLKKGLGISYGR
IC50 [1]: 3.63 µM
IC50 [2]: 158 µM
IC50 [3]: 0.2 µM
IC50 [11]: 0.0095 µM
IC50 [4]: 0.443 µM
IC50 [8]: 0.088 µM
IC50 [5]: 4.44 µM
IC50 [6]: 0.04 µM

TLERPKTLSPQKNGV
IC50 ([1]; read-out: DRB1 *0701): 26 µM
IC50 ([2]; read-out: DRB1 *0301): 134 µM
IC50 ([3]; read-out: DRB1 *0901): > 300 µM
IC50 ([4]; read-out: DRB1 *0405): > 28.6 µM
IC50 ([5]; read-out: DRB1 *0401): > 22.5 µM
IC50 ([6]; read-out: DRB1 *0802): > 75.4 µM

VASLLTTAEVVVTE
IC50 ([1]; read-out: DRB1 *0701): 0.369 µM
IC50 ([2]; read-out: DRB1 *0301): 136 µM
IC50 ([3]; read-out: DRB1 *0901): 1.96 µM
IC50 ([4]; read-out: DRB1 *0405): 6.52 µM
IC50 ([5]; read-out: DRB1 *0401): 7.43 µM
IC50 ([6]; read-out: DRB1 *0802): > 118 µM

VNFYAWKRMEVGQQA
IC50 ([1]; DRB1 *0701): 40.2 µM
IC50 ([10]; DRB1 *0101): 0.193 µM
IC50 [2]: 2.87 µM
IC50 ([3]; DRB1 *0901): 1.24 µM
IC50 ([11]; DRB1 *1101): 0.05 µM
IC50 ([4]; DRB1 *0405): 0.015 µM
IC50 ([8]; DRBI *1302): 14.8 µM
IC50 ([5]; DRB1 *0401): 0.01 µM
IC50 [12]: 1.49 µM
IC50 [6]: 0.035 µM

VRVEILRYFYVINRL
IC50 ([1]; read-out: DRB1 *0701): 0.014 µM
IC50 ([10]; read-out: DRB1 *0101): 0.0018 µM
IC50 ([3]; read-out: DRB1 *0901): 0.485 µM
IC50 ([4]; read-out: DRB1 *0405): 0.018 µM
IC50 ([5]; read-out: DRB1 *0401): 0.14 µM
IC50 ([6]; read-out: DRB1 *0802): 3.58 µM

YLVTGERGFFYTKYT
IC50 ([1]; read-out: DRB1 *0701): 0.078 µM
IC50 ([10]; read-out: DRB1 *0101): 1.15 µM
IC50 ([2]; read-out: DRB1 *0301): 4.8 µM
IC50 ([3]; read-out: DRB1 *0901): 195 µM
IC50 ([4]; read-out: DRB1 *0405): > 30.1 µM
IC50 ([5]; read-out: DRB1 *0401): > 20.5 µM
IC50 ([6]; read-out: DRB1 *0802): 4.3 µM
